Data set [1] in a line: studies using radiolabelled compound, residues in saliva. Format: in vivo. How it is done:
For example, in the treatment of adult humans, dosages of from 0.25 to 30 mg, preferably from 1 to 20 mg, per day may be used. A once a day dosage is normally sufficient, although divided doses may be administered. For treatment of gastrointestinal disorders, a dose range of from 1 to 20 mg, preferably 2.5 to 15 mg per day is suitable.

For data set [2], the system named is cloned human 5-HT2B receptor. Kind of data set: [3H]5-HT radioligand binding, cloned human 5-HT2B receptor. Particulars: statement in words only, no value given.

The source of these data is patent publication US5457101A (priority 1994, dated 1995).

The structures appear in SMILES notation.

In the case of `Cc1cc2c(s1)Nc1ccccc1N=C2N1CCN(C)CC1` [2-methyl-4-(4-methyl-1-piperazinyl)-10H-thieno-[2,3-b][1,5]benzodiazepine], the “residues of radiolabelled compound in saliva” value in data set [1] is given as “detected in the saliva”. Further, the 5-HT2B receptor activity in data set [2] was 5-HT2B receptor activity.
